Data taken from ChEMBL document CHEMBL5724914, “Linking interpersonal differences in gut microbiota composition and drug biotransformation activity” (2024).

What was measured:
[1] = The drug is tested on Z-030 corresponding to mouse gut metagenome with ENA study accession number: PRJEB37062 and ENA sample accession number: ERS12561829 for biotransformation under anaerobic condition. The drug concentrations were measured over 9 timepoints collected between 0 and 24 hours of incubation by liquid-chromatography-coupled mass spectrometry (LC–MS); conditions: 2 µM
[2] = human gut metagenome, 24 h, 2 µM
[3] = The drug is tested on WLS-069 corresponding to human gut metagenome with ENA study accession number: PRJEB37062 and ENA sample accession number: ERS12561748 for biotransformation under anaerobic condition. The drug concentrations were measured over 9 timepoints collected between 0 and 24 hours of incubation by liquid-chromatography-coupled mass spectrometry (LC–MS); conditions: 2 µM
[4] = The drug is tested on Z-020 corresponding to rabbit gut metagenome with ENA study accession number: PRJEB37062 and ENA sample accession number: ERS12561819 for biotransformation under anaerobic condition. The drug concentrations were measured over 9 timepoints collected between 0 and 24 hours of incubation by liquid-chromatography-coupled mass spectrometry (LC–MS); conditions: 2 µM
[5] = The drug is tested on Z-001 corresponding to mouse gut metagenome with ENA study accession number: PRJEB37062 and ENA sample accession number: ERS12561801 for biotransformation under anaerobic condition. The drug concentrations were measured over 9 timepoints collected between 0 and 24 hours of incubation by liquid-chromatography-coupled mass spectrometry (LC–MS); conditions: 2 µM
[6] = The drug is tested on Z-007 corresponding to rat gut metagenome with ENA study accession number: PRJEB37062 and ENA sample accession number: ERS12561807 for biotransformation under anaerobic condition. The drug concentrations were measured over 9 timepoints collected between 0 and 24 hours of incubation by liquid-chromatography-coupled mass spectrometry (LC–MS); conditions: 2 µM
[7] = human gut metagenome, 24 h, 2 µM; remark: listed apart in the source
[8] = human gut metagenome, 24 h, 2 µM; remark: listed apart in the source
[9] = The drug is tested on Z-002 corresponding to rabbit gut metagenome with ENA study accession number: PRJEB37062 and ENA sample accession number: ERS12561802 for biotransformation under anaerobic condition. The drug concentrations were measured over 9 timepoints collected between 0 and 24 hours of incubation by liquid-chromatography-coupled mass spectrometry (LC–MS); conditions: 2 µM
[10] = The drug is tested on WLS-073 corresponding to human gut metagenome with ENA study accession number: PRJEB37062 and ENA sample accession number: ERS12561749 for biotransformation under anaerobic condition. The drug concentrations were measured over 9 timepoints collected between 0 and 24 hours of incubation by liquid-chromatography-coupled mass spectrometry (LC–MS); conditions: 2 µM
[11] = human gut metagenome, 24 h, 2 µM; remark: listed apart in the source
[12] = The drug is tested on Z-005 corresponding to metagenome with ENA study accession number: PRJEB37062 and ENA sample accession number: ERS12561805 for biotransformation under anaerobic condition. The drug concentrations were measured over 9 timepoints collected between 0 and 24 hours of incubation by liquid-chromatography-coupled mass spectrometry (LC–MS); conditions: 2 µM
[13] = The drug is tested on Z-019 corresponding to rat gut metagenome with ENA study accession number: PRJEB37062 and ENA sample accession number: ERS12561818 for biotransformation under anaerobic condition. The drug concentrations were measured over 9 timepoints collected between 0 and 24 hours of incubation by liquid-chromatography-coupled mass spectrometry (LC–MS); conditions: 2 µM
[14] = human gut metagenome, 24 h, 2 µM; remark: listed apart in the source
[15] = The drug is tested on WLS-007 corresponding to human gut metagenome with ENA study accession number: PRJEB37062 and ENA sample accession number: ERS12561742 for biotransformation under anaerobic condition. The drug concentrations were measured over 9 timepoints collected between 0 and 24 hours of incubation by liquid-chromatography-coupled mass spectrometry (LC–MS); conditions: 2 µM
[16] = human gut metagenome, 24 h, 2 µM; remark: listed apart in the source
[17] = human gut metagenome, 24 h, 2 µM; remark: listed apart in the source
[18] = The drug is tested on WLS-098 corresponding to human gut metagenome with ENA study accession number: PRJEB37062 and ENA sample accession number: ERS12561754 for biotransformation under anaerobic condition. The drug concentrations were measured over 9 timepoints collected between 0 and 24 hours of incubation by liquid-chromatography-coupled mass spectrometry (LC–MS); conditions: 2 µM
[19] = The drug is tested on Z-027 corresponding to metagenome with ENA study accession number: PRJEB37062 and ENA sample accession number: ERS12561826 for biotransformation under anaerobic condition. The drug concentrations were measured over 9 timepoints collected between 0 and 24 hours of incubation by liquid-chromatography-coupled mass spectrometry (LC–MS); conditions: 2 µM
[20] = human gut metagenome, 24 h, 2 µM; remark: listed apart in the source
Also: call rule not given here.

Structure (SMILES)	Bacterial Biotransformation [1]	Bacterial Biotransformation [2]	Bacterial Biotransformation [3]	Bacterial Biotransformation [4]	Bacterial Biotransformation [5]	Bacterial Biotransformation [6]	Bacterial Biotransformation [7]	Bacterial Biotransformation [8]	Bacterial Biotransformation [9]	Bacterial Biotransformation [10]	Bacterial Biotransformation [11]	Bacterial Biotransformation [12]	Bacterial Biotransformation [13]	Bacterial Biotransformation [14]	Bacterial Biotransformation [15]	Bacterial Biotransformation [16]	Bacterial Biotransformation [17]	Bacterial Biotransformation [18]	Bacterial Biotransformation [19]	Bacterial Biotransformation [20]
CN/C(=N/CCSCc1nc[nH]c1C)NC#N [CIMETIDINE]	Compound NOT metabolized	Compound metabolized	Compound metabolized	Compound NOT metabolized	Compound NOT metabolized	Compound NOT metabolized	Compound metabolized	Compound metabolized	Compound NOT metabolized	Compound NOT metabolized	Compound NOT metabolized	Compound metabolized	Compound NOT metabolized	Compound NOT metabolized	Compound NOT metabolized	Compound metabolized	Compound metabolized	Compound metabolized	Compound NOT metabolized	Compound NOT metabolized
CN(C)CCC=C1c2ccccc2C=Cc2ccccc21 [CYCLOBENZAPRINE]	Compound NOT metabolized	Compound metabolized	Compound metabolized	Compound NOT metabolized	Compound metabolized	Compound NOT metabolized	Compound metabolized	Compound metabolized	Compound metabolized	Compound metabolized	Compound NOT metabolized	Compound NOT metabolized	Compound NOT metabolized	Compound NOT metabolized	Compound metabolized	Compound metabolized	Compound metabolized	Compound metabolized	Compound NOT metabolized	Compound metabolized

Further lines, results first:

Bacterial Biotransformation [1]	Bacterial Biotransformation [2]	Bacterial Biotransformation [3]	Bacterial Biotransformation [4]	Bacterial Biotransformation [5]	Bacterial Biotransformation [6]	Bacterial Biotransformation [7]	Bacterial Biotransformation [8]	Bacterial Biotransformation [9]	Bacterial Biotransformation [10]	Bacterial Biotransformation [11]	Bacterial Biotransformation [12]	Bacterial Biotransformation [13]	Bacterial Biotransformation [14]	Bacterial Biotransformation [15]	Bacterial Biotransformation [16]	Bacterial Biotransformation [17]	Bacterial Biotransformation [18]	Bacterial Biotransformation [19]	Bacterial Biotransformation [20]	Structure (SMILES)
Compound NOT metabolized	Compound metabolized	Compound metabolized	Compound NOT metabolized	Compound NOT metabolized	Compound NOT metabolized	Compound metabolized	Compound metabolized	Compound metabolized	Compound NOT metabolized	Compound NOT metabolized	Compound NOT metabolized	Compound NOT metabolized	Compound NOT metabolized	Compound NOT metabolized	Compound metabolized	Compound NOT metabolized	Compound metabolized	Compound NOT metabolized	Compound NOT metabolized	Br.CN(C)CCCC1(c2ccc(F)cc2)OCc2cc(C#N)ccc21 (stereo not given) [CITALOPRAM HYDROBROMIDE]
Compound NOT metabolized	Compound NOT metabolized	Compound NOT metabolized	Compound metabolized	Compound NOT metabolized	Compound NOT metabolized	Compound NOT metabolized	Compound NOT metabolized	Compound metabolized	Compound NOT metabolized	Compound NOT metabolized	Compound metabolized	Compound NOT metabolized	Compound NOT metabolized	Compound NOT metabolized	Compound NOT metabolized	Compound NOT metabolized	Compound NOT metabolized	Compound metabolized	Compound NOT metabolized	C[C@@H]1C[C@H]2[C@@H]3CCC4=CC(=O)C=C[C@]4(C)[C@@]3(F)[C@@H](O)C[C@]2(C)[C@@]1(O)C(=O)CO [DEXAMETHASONE]
Compound NOT metabolized	Compound NOT metabolized	Compound metabolized	Compound NOT metabolized	Compound NOT metabolized	Compound NOT metabolized	Compound metabolized	Compound metabolized	Compound NOT metabolized	Compound NOT metabolized	Compound NOT metabolized	Compound NOT metabolized	Compound NOT metabolized	Compound NOT metabolized	Compound NOT metabolized	Compound metabolized	Compound NOT metabolized	Compound metabolized	Compound NOT metabolized	Compound NOT metabolized	O=C(Nc1ccccc1)OCC(CN1CCCCC1)OC(=O)Nc1ccccc1 (stereo not given) [DIPERODON]
